# Test results published in patent US20260262643A1, “HERBICIDAL BENZOXAZINES” (FMC CORPORATION, priority 2022, published 2026).
# Experiments:
# [1] = system: barnyardgrass; assay: Test C preemergence; format: in vivo, Echinochloa crusgalli; details: 0 to 100 scale (0 no effect, 100 complete control); for Plant response rating, Barnyardgrass: Preemergence, 500 g ai/ha, visual rating after 10 days; for Barnyardgrass plant response rating: Test C, preemergence, 125 g ai/ha
# In short: (§1)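 Visual injury ratings on a 0–100 scale (100 = complete control) were made against untreated controls 10 days after treatment in the greenhouse. Compounds, formulated with surfactant in non-phytotoxic solvent, were sprayed on soil preemergence or onto one- to two-leaf plants 2–10 cm tall postemergence.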
# [2] = system: ryegrass, Italian; assay: Test C preemergence; format: in vivo, Lolium multiflorum; details: 0 to 100 scale (0 no effect, 100 complete control); for Plant response rating, Ryegrass, Italian: Preemergence, 500 g ai/ha, visual rating after 10 days; for Ryegrass, Italian plant response rating: Test C, preemergence, 125 g ai/ha
# In short: as §1
# [3] = system: blackgrass; assay: Test C postemergence; format: in vivo, Alopecurus myosuroides; details: 10 days
# In short: as §1
# [4] = system: soybean; assay: Test C preemergence; format: in vivo, Glycine max; details: 0 to 100 scale (0 no effect, 100 complete control); for Plant response rating, Soybean: Preemergence, 500 g ai/ha, visual rating after 10 days; for Soybean plant response rating: Test C, preemergence, 125 g ai/ha
# In short: as §1
# [5] = system: ragweed; assay: Test C preemergence; format: in vivo, Ambrosia artemisiifolia; details: 0 to 100 scale (0 no effect, 100 complete control); for Plant response rating, Ragweed: Preemergence, 500 g ai/ha, visual rating after 10 days; for Ragweed plant response rating: Test C, preemergence, 125 g ai/ha
# In short: as §1
# [6] = system: pigweed, palmer; assay: Test C preemergence; format: in vivo, Amaranthus palmeri; details: 0 to 100 scale (0 no effect, 100 complete control); for Plant response rating, Pigweed, Palmer: Preemergence, 500 g ai/ha, visual rating after 10 days; for Pigweed, Palmer plant response rating: Test C, preemergence, 125 g ai/ha
# In short: as §1
# [7] = system: ryegrass, Italian; assay: Test C postemergence; format: in vivo, Lolium multiflorum; details: 10 days
# In short: as §1
# [8] = system: corn; assay: Test C preemergence; format: in vivo, Zea mays; details: 0 to 100 scale (0 no effect, 100 complete control); for Plant response rating, Corn: Preemergence, 500 g ai/ha, visual rating after 10 days; for Corn plant response rating: Test C, preemergence, 125 g ai/ha
# In short: as §1
# [9] = system: barnyardgrass; assay: Test C postemergence; format: in vivo, Echinochloa crusgalli; details: 10 days
# In short: as §1
# [10] = system: horseweed; assay: Test C postemergence; format: in vivo, Erigeron canadensis; details: 10 days
# In short: as §1
# [11] = system: sedge, umbrella; assay: Test D flooded paddy test; format: in vivo, Cyperus difformis; details: 250 g ai/ha, applied to paddy water, visual rating after 13 to 14 days, scale 0 to 100 (0 no effect, 100 complete control)
# In short: (§2)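 At the 2-leaf stage, floodwater 3 cm deep received the test compound; that depth persisted throughout. Plants scored visually 13 to 14 days on, 0 (no effect) to 100 (complete control), dash indicating no result.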
# [12] = system: barnyardgrass; assay: Test D flooded paddy test; format: in vivo, Echinochloa crus-galli; details: 250 g ai/ha, applied to paddy water, visual rating after 13 to 14 days, scale 0 to 100 (0 no effect, 100 complete control)
# In short: as §2
# [13] = system: ducksalad; assay: Test D flooded paddy test; format: in vivo, Heteranthera limosa; details: 250 g ai/ha, applied to paddy water, visual rating after 13 to 14 days, scale 0 to 100 (0 no effect, 100 complete control)
# In short: as §2
# [14] = system: soybean; assay: Test C postemergence; format: in vivo, Glycine max; details: 10 days
# In short: as §1
# [15] = system: wheat; assay: Test C preemergence; format: in vivo, Triticum aestivum; details: 0 to 100 scale (0 no effect, 100 complete control); for Plant response rating, Wheat: Preemergence, 500 g ai/ha, visual rating after 10 days; for Wheat plant response rating: Test C, preemergence, 125 g ai/ha
# In short: as §1
# [16] = system: blackgrass; assay: Test C preemergence; format: in vivo, Alopecurus myosuroides; details: 0 to 100 scale (0 no effect, 100 complete control); for Plant response rating, Blackgrass: Preemergence, 500 g ai/ha, visual rating after 10 days; for Blackgrass plant response rating: Test C, preemergence, 125 g ai/ha
# In short: as §1
# [17] = system: oat, wild; assay: Test C preemergence; format: in vivo, Avena fatua; details: 0 to 100 scale (0 no effect, 100 complete control); for Plant response rating, Oat, Wild: Preemergence, 500 g ai/ha, visual rating after 10 days
# In short: as §1
# [18] = system: wheat; assay: Test C postemergence; format: in vivo, Triticum aestivum; details: 10 days
# In short: as §1
# [19] = system: pigweed, palmer; assay: Test C postemergence; format: in vivo, Amaranthus palmeri; details: 10 days
# In short: as §1
# [20] = system: oat, wild; assay: Test C postemergence; format: in vivo, Avena fatua; details: 10 days
# In short: as §1
# [21] = system: green foxtail; assay: Test C postemergence; format: in vivo, Setaria viridis; details: 10 days
# In short: as §1
# [22] = system: kochia; assay: Test C postemergence; format: in vivo, Bassia scoparia; details: 10 days
# In short: as §1
# [23] = system: corn; assay: Test C postemergence; format: in vivo, Zea mays; details: 10 days
# In short: as §1
# [24] = system: ragweed; assay: Test C postemergence; format: in vivo, Ambrosia artemisiifolia; details: 10 days
# In short: as §1
# [25] = system: kochia; assay: Test C preemergence; format: in vivo, Bassia scoparia; details: 0 to 100 scale (0 no effect, 100 complete control); for Plant response rating, Kochia: Preemergence, 500 g ai/ha, visual rating after 10 days; for Kochia plant response rating: Test C, preemergence, 125 g ai/ha
# In short: as §1
# [26] = system: green foxtail; assay: Test C preemergence; format: in vivo, Setaria viridis; details: 0 to 100 scale (0 no effect, 100 complete control); for Plant response rating, Foxtail, Green: Preemergence, 500 g ai/ha, visual rating after 10 days; for Foxtail, Green plant response rating: Test C, preemergence, 125 g ai/ha
# In short: as §1
# [27] = system: rice; assay: Test D flooded paddy test; format: in vivo, Oryza sativa; details: 250 g ai/ha, applied to paddy water, visual rating after 13 to 14 days, scale 0 to 100 (0 no effect, 100 complete control)
# In short: as §2
# [28] = 125 g ai/ha, postemergence, 0 to 100 scale, 0 no effect, 100 complete control
# [29] = Postemergence, 500 g ai/ha, visual 0 to 100 scale (0 no effect, 100 complete control)
structure (smiles),measurement,setting,value
C[C@H]1CN(C(=O)c2cccc(-c3ncccn3)c2)c2cccc(Cl)c2O1 [Compound 203],"Plant response rating, Barnyardgrass",[1],0
same,Barnyardgrass plant response rating,[1],0
same,"Plant response rating, Ryegrass, Italian",[2],20
same,"Ryegrass, Italian plant response rating",[2],0
same,"Plant response rating, Blackgrass",[3]; [28],0
same,"Plant response rating, Blackgrass",[3]; [29],0
same,"Plant response rating, Soybean",[4],0
same,Soybean plant response rating,[4],0
same,"Plant response rating, Ragweed",[5],0
same,Ragweed plant response rating,[5],0
same,"Plant response rating, Pigweed, Palmer",[6],70
same,"Pigweed, Palmer plant response rating",[6],20
same,"Plant response rating, Ryegrass, Italian",[7]; [28],0
same,"Plant response rating, Ryegrass, Italian",[7]; [29],0
same,"Plant response rating, Corn",[8],0
same,Corn plant response rating,[8],0
same,"Plant response rating, Barnyardgrass",[9]; [28],0
same,"Plant response rating, Barnyardgrass",[9]; [29],0
same,"Plant response rating, Horseweed",[10]; [28],0
same,"Plant response rating, Horseweed",[10]; [29],0
same,"Plant response rating, Sedge, Umbrella (Flood)",[11],0
same,"Plant response rating, Barnyardgrass (Flood)",[12],0
same,"Plant response rating, Ducksalad (Flood)",[13],0
same,"Plant response rating, Soybean",[14]; [28],100
same,"Plant response rating, Soybean",[14]; [29],100
same,"Plant response rating, Wheat",[15],0
same,Wheat plant response rating,[15],0
same,"Plant response rating, Blackgrass",[16],0
same,Blackgrass plant response rating,[16],0
same,"Plant response rating, Oat, Wild",[17],0
same,"Plant response rating, Wheat",[18]; [28],0
same,"Plant response rating, Wheat",[18]; [29],10
same,"Plant response rating, Pigweed, Palmer",[19]; [28],0
same,"Plant response rating, Pigweed, Palmer",[19]; [29],40
same,"Plant response rating, Oat, Wild",[20]; [28],0
same,"Plant response rating, Oat, Wild",[20]; [29],10
same,"Plant response rating, Foxtail, Green",[21]; [28],0
same,"Plant response rating, Foxtail, Green",[21]; [29],10
same,"Plant response rating, Kochia",[22]; [28],0
same,"Plant response rating, Kochia",[22]; [29],40
same,"Plant response rating, Corn",[23]; [28],0
same,"Plant response rating, Corn",[23]; [29],10
same,"Plant response rating, Ragweed",[24]; [28],0
same,"Plant response rating, Ragweed",[24]; [29],20
same,"Plant response rating, Kochia",[25],30
same,Kochia plant response rating,[25],0
same,"Plant response rating, Foxtail, Green",[26],60
same,"Foxtail, Green plant response rating",[26],20
same,"Plant response rating, Rice (Flood)",[27],0
"CC(C)c1ncn(-c2cc3c(c(C(=O)N4C[C@H](C)Oc5c(Cl)cccc54)c2)OCCO3)n1 [Compound 217, [(2S)-8-chloro-2-methyl-2,3-dihydro-1,4-benzoxazin-4-yl]-[7-(3-isopropyl-1,2,4-triazol-1-yl)-2,3-dihydro-1,4-benzodioxin-5-yl]methanone]","Plant response rating, Barnyardgrass",[1],100
same,Barnyardgrass plant response rating,[1],90
same,"Plant response rating, Ryegrass, Italian",[2],100
same,"Ryegrass, Italian plant response rating",[2],90
same,pest or weed control at 125 g/ha,"[3]; Alopecurus myosuroides, post-emergence, 240 h, 125 g ai/ha, postemergence, 0 to 100 scale (0 no effect, 100 complete control), read-out: Plant response rating, Blackgrass",90%
same,pest or weed control at 500 g/ha,"[3]; Alopecurus myosuroides, post-emergence, 240 h, Postemergence, 500 g ai/ha, visual 0 to 100 scale (0 no effect, 100 complete control), read-out: Plant response rating, Blackgrass",100%
same,"Plant response rating, Soybean",[4],100
same,Soybean plant response rating,[4],70
same,"Plant response rating, Ragweed",[5],100
same,Ragweed plant response rating,[5],70
same,"Plant response rating, Pigweed, Palmer",[6],100
same,"Pigweed, Palmer plant response rating",[6],100
same,"Plant response rating, Ryegrass, Italian",[7]; [28],70
same,"Plant response rating, Ryegrass, Italian",[7]; [29],90
same,"Plant response rating, Corn",[8],40
same,Corn plant response rating,[8],30
same,"Plant response rating, Barnyardgrass",[9]; [28],40
same,"Plant response rating, Barnyardgrass",[9]; [29],80
same,"Plant response rating, Horseweed",[10]; [28],80
same,"Plant response rating, Horseweed",[10]; [29],100
same,"Plant response rating, Sedge, Umbrella (Flood)",[11],98
same,"Plant response rating, Barnyardgrass (Flood)",[12],50
same,"Plant response rating, Ducksalad (Flood)",[13],85
same,"Plant response rating, Soybean",[14]; [28],100
same,"Plant response rating, Soybean",[14]; [29],100
same,"Plant response rating, Wheat",[15],90
same,Wheat plant response rating,[15],30
same,"Plant response rating, Blackgrass",[16],90
same,Blackgrass plant response rating,[16],60
same,"Plant response rating, Oat, Wild",[17],90
same,"Oat, Wild plant response rating","[17]; Test C, preemergence, 125 g ai/ha",90
same,"Plant response rating, Wheat",[18]; [28],50
same,"Plant response rating, Wheat",[18]; [29],50
same,"Plant response rating, Pigweed, Palmer",[19]; [28],100
same,"Plant response rating, Pigweed, Palmer",[19]; [29],100
same,"Plant response rating, Oat, Wild",[20]; [28],20
same,"Plant response rating, Oat, Wild",[20]; [29],40
same,"Plant response rating, Foxtail, Green",[21]; [28],90
same,"Plant response rating, Foxtail, Green",[21]; [29],90
same,"Plant response rating, Kochia",[22]; [28],80
same,"Plant response rating, Kochia",[22]; [29],90
same,"Corn plant response rating (crop injury, 0 = no effect, 100 = complete kill) at 125 g/ha","[23]; Zea mays, post-emergence, 240 h, 125 g ai/ha, postemergence, 0 to 100 scale (0 no effect, 100 complete control)",70%
same,"Corn plant response rating (crop injury, 0 = no effect, 100 = complete kill) at 500 g/ha","[23]; Zea mays, post-emergence, 240 h, Postemergence, 500 g ai/ha, visual 0 to 100 scale (0 no effect, 100 complete control)",70%
same,"Plant response rating, Ragweed",[24]; [28],90
same,"Plant response rating, Ragweed",[24]; [29],100
same,"Plant response rating, Kochia",[25],100
same,Kochia plant response rating,[25],80
same,"Plant response rating, Foxtail, Green",[26],100
same,"Foxtail, Green plant response rating",[26],100
same,"Plant response rating, Rice (Flood)",[27],20
